Tested on: HBV
Experiment: HBV replication inhibition assay (BDNA assay) in HepG2.2.15 cells
Type: cell-based, Hepatitis B virus
Conditions: 6 days, encapsidated HBV DNA in supernatant
In short: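 HepG2.2.15 cells were dosed with serially diluted compound (0.5% DMSO), with compound and medium renewed at day 3. Day-6 supernatants were DNase-treated and proteinase K-lysed, and encapsidated HBV DNA was quantified by branched-DNA assay. Percent inhibition was set against DMSO controls and EC50 obtained by nonlinear fit.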

| SMILES | EC50 [nM] |
| --- | --- |
| COC(=O)NCC1CCC(F)(F)c2c3c(nn2C1)C[C@@H](C)N(C(=O)Nc1ccnc(C(F)F)c1F)C3 (single isomer, unassigned) [Example 107, Methyl (((3R,8R*)-2-((2-(difluoromethyl)-3-fluoropyridin-4-yl)carbamoyl)-11,11-difluoro-3-methyl-2,3,4,7,8,9,10,11-octahydro-1H-pyrido[4′,3′:3,4]pyrazolo[1,5-a]azepin-8-yl)methyl)carbamate] | 8 |
| C[C@@H]1Cc2nn3c(c2CN1C(=O)Nc1ccc(F)c(C(F)(F)F)c1)C(F)(F)CCC(CO)C3 (single isomer, unassigned) [Example 80, (3R,8R*)-11,11-Difluoro-N-(4-fluoro-3-(trifluoromethyl)phenyl)-8-(hydroxymethyl)-3-methyl-3,4,8,9,10,11-hexahydro-1H-pyrido[4′,3′:3,4]pyrazolo[1,5-a]azepine-2(7H)-carboxamide] | 1 |
| C#CC1(O)CCC(F)(F)c2c3c(nn2C1)C[C@@H](C)N(C(=O)Nc1ccc(F)c(C#N)c1)C3 (single isomer, unassigned) [Example 95, (3R,8R*)—N-(3-Cyano-4-fluorophenyl)-8-ethynyl-11,11-difluoro-8-hydroxy-3-methyl-3,4,8,9,10,11-hexahydro-1H-pyrido[4′,3′:3,4]pyrazolo[1,5-a]azepine-2(7H)-carboxamide] | 13 |
| C#CC1(O)CCC(F)(F)c2c3c(nn2C1)C[C@@H](C)N(C(=O)Nc1ccnc(Br)c1F)C3 (single isomer, unassigned) [Example 96, (3R,8R*)—N-(2-Bromo-3-fluoropyridin-4-yl)-8-ethynyl-11,11-difluoro-8-hydroxy-3-methyl-3,4,8,9,10,11-hexahydro-1H-pyrido[4′,3′:3,4]pyrazolo[1,5-a]azepine-2(7H)-carboxamide] | 35 |
| N#CCC1(O)CCC(F)(F)c2c3c(nn2C1)CCN(C(=O)Nc1ccnc(Br)c1F)C3 (single isomer, unassigned) [Example 43, (S*)—N-(2-Bromo-3-fluoropyridin-4-yl)-8-(cyanomethyl)-11,11-difluoro-8-hydroxy-34,89,10,11-hexahydro-1H-pyrido[4′,3′:3,4]pyrazolo[1,5-a]azepine-2(7H)-carboxamide] | 282 |
| O=C(Nc1ccnc(Br)c1F)N1CCc2nn3c(c2C1)C(F)(F)CC(O)CC3 (single isomer, unassigned) [Example 137, (R*)—N-(2-Bromo-3-fluoropyridin-4-yl)-11,11-difluoro-9-hydroxy-3,4,8,9,10,11-hexahydro-1H-pyrido[4′,3′:3,4]pyrazolo[1,5-a]azepine-2(7H)-carboxamide] | 2 |
| COC(=O)NCC1CCC(F)(F)c2c3c(nn2C1)C[C@@H](C)N(C(=O)Nc1ccc(F)c(C#N)c1)C3 (single isomer, unassigned) [Example 108, Methyl (((3R,8S*)-2-((3-cyano-4-fluorophenyl)carbamoyl)-11,11-difluoro-3-methyl-2,3,4,7,8,9,10,11-octahydro-1H-pyrido[4′,3′:3,4]pyrazolo[1,5-a]azepin-8-yl)methyl)carbamate] | 12 |
| COC(=O)NCC1CCC(F)(F)c2c3c(nn2C1)C[C@@H](C)N(C(=O)Nc1ccc(F)c(C#N)c1)C3 (single isomer, unassigned) [Example 105, methyl (((3R,8R*)-2-((3-cyano-4-fluorophenyl)carbamoyl)-11,11-difluoro-3-methyl-2,3,4,7,8,9,10,11-octahydro-1H-pyrido[4′,3′:3,4]pyrazolo[1,5-a]azepin-8-yl)methyl)carbamate] | 3 |
| O=C(Nc1ccc(F)c(C(F)(F)F)c1)N1CCc2nn3c(c2C1)C(F)(F)CCC(COCC(F)F)C3 (single isomer, unassigned) [Example 28, (S*)-8-((2,2-Difluoroethoxy)methyl)-11,11-difluoro-N-(4-fluoro-3-(trifluoromethyl)phenyl)-3,4,8,9,10,11-hexahydro-1H-pyrido[4′,3′:3,4]pyrazolo[1,5-a]azepine-2(7H)-carboxamide] | 22 |
| O=C(Nc1ccnc(Br)c1F)N1CCc2nn3c(c2C1)C(F)(F)CC(O)CC3 (single isomer, unassigned) [Example 140, (S*)—N-(2-Bromo-3-fluoropyridin-4-yl)-11,11-difluoro-9-hydroxy-3,4,8,9,10,11-hexahydro-1H-pyrido[4′,3′:3,4]pyrazolo[1,5-a]azepine-2(7H)-carboxamide] | 27 |
| COC(=O)NCC1CCC(F)(F)c2c3c(nn2C1)C[C@@H](C)N(C(=O)Nc1ccnc(Br)c1F)C3 (single isomer, unassigned) [Example 106, Methyl (((3R,8R*)-2-((2-bromo-3-fluoropyridin-4-yl)carbamoyl)-11,11-difluoro-3-methyl-2,3,4,7,8,9,10,11-octahydro-1H-pyrido[4′,3′:3,4]pyrazolo[1,5-a]azepin-8-yl)methyl)carbamate] | 10 |
| C[C@@H]1Cc2nn3c(c2CN1C(=O)Nc1ccc(F)c(C#N)c1)C(F)(F)CC(O)(CO)CC3 (single isomer, unassigned) [Example 126, (3R,9S*)—N-(3-Cyano-4-fluorophenyl)-11,11-difluoro-9-hydroxy-9-(hydroxymethyl)-3-methyl-3,4,8,9,10,11-hexahydro-1H-pyrido[4′,3′:3,4]pyrazolo[1,5-a]azepine-2(7H)-carboxamide] | 5 |
| C[C@@H]1Cc2nn3c(c2CN1C(=O)Nc1ccc(F)c(C#N)c1)C(F)(F)CCC(C(C)(C)O)C3 (single isomer, unassigned) [Example 103, (3R,8R*)—N-(3-Cyano-4-fluorophenyl)-11,11-difluoro-8-(2-hydroxypropan-2-yl)-3-methyl-3,4,8,9,10,11-hexahydro-1H-pyrido[4′,3′:3,4]pyrazolo[1,5-a]azepine-2(7H)-carboxamide] | 18 |
| C[C@@H]1Cc2nn3c(c2CN1C(=O)Nc1ccnc(C(F)F)c1F)C(F)(F)CC(O)CC3 (single isomer, unassigned) [Example 121, (3R,9S*)—N-(2-(Difluoromethyl)-3-fluoropyridin-4-yl)-11,11-difluoro-9-hydroxy-3-methyl-3,4,8,9,10,11-hexahydro-1H-pyrido[4′,3′:3,4]pyrazolo[1,5-a]azepine-2(7H)-carboxamide] | 8 |
| N#Cc1c(F)ccc(NC(=O)N2CCc3nn4c(c3C2)C(F)(F)CCC(CO)C4)c1F (single isomer, unassigned) [Example 25, (R*)—N-(3-Cyano-2,4-difluorophenyl)-11,11-difluoro-8-(hydroxymethyl)-3,4,8,9,10,11-hexahydro-1H-pyrido[4′,3′:3,4]pyrazolo[1,5-a]azepine-2(7H)-carboxamide] | 34 |
| C[C@@H]1Cc2nn3c(c2CN1C(=O)Nc1ccc(F)c(C(F)(F)F)c1)C(F)(F)CCC(CO)C3 (single isomer, unassigned) [Example 76, (3R,8S*)-11,11-Difluoro-N-(4-fluoro-3-(trifluoromethyl)phenyl)-8-(hydroxymethyl)-3-methyl-3,4,8,9,10,11-hexahydro-1H-pyrido[4′,3′:3,4]pyrazolo[1,5-a]azepine-2(7H)-carboxamide] | 5 |
| C=CC1(O)CCC(F)(F)c2c3c(nn2C1)CCN(C(=O)Nc1ccc(F)c(C#N)c1)C3 (single isomer, unassigned) [Example 57, (S*)—N-(3-Cyano-4-fluorophenyl)-11,11-difluoro-8-hydroxy-8-vinyl-3,4,8,9,10,11-hexahydro-1H-pyrido[4′,3′:3,4]pyrazolo[1,5-a]azepine-2(7H)-carboxamide] | 9 |
| C[C@@H]1Cc2nn3c(c2CN1C(=O)Nc1ccnc(C(F)F)c1F)C(F)(F)CCC(CO)C3 (single isomer, unassigned) [Example 82, (3R,8R*)—N-(2-(Difluoromethyl)-3-fluoropyridin-4-yl)-11,11-difluoro-8-(hydroxymethyl)-3-methyl-3,4,8,9,10,11-hexahydro-1H-pyrido[4′,3′:3,4]pyrazolo[1,5-a]azepine-2(7H)-carboxamide] | 1 |
| C[C@@H]1Cc2nn3c(c2CN1C(=O)Nc1ccnc(C(F)F)c1F)C(F)(F)CCC(O)(CC#N)C3 (single isomer, unassigned) [Example 92, (3R,8R*)-8-(Cyanomethyl)-N-(2-(difluoromethyl)-3-fluoropyridin-4-yl)-11,11-difluoro-8-hydroxy-3-methyl-3,4,8,9,10,11-hexahydro-1H-pyrido[4′,3′:3,4]pyrazolo[1,5-a]azepine-2(7H)-carboxamide] | 191 |
| O=C(Nc1ccnc(Br)c1F)N1CCc2nn3c(c2C1)C(F)(F)CCC(CO)C3 (single isomer, unassigned) [Example 22, (S*)—N-(2-Bromo-3-fluoropyridin-4-yl)-11,11-difluoro-8-(hydroxymethyl)-3,4,8,9,10,11-hexahydro-1H-pyrido[4′,3′:3,4]pyrazolo[1,5-a]azepine-2(7H)-carboxamide] | 4 |
| C[C@@H]1Cc2nn3c(c2CN1C(=O)Nc1ccnc(C(F)F)c1F)C(F)(F)CC(O)CC3 (single isomer, unassigned) [Example 122, (3R,9R*)—N-(2-(Difluoromethyl)-3-fluoropyridin-4-yl)-11,11-difluoro-9-hydroxy-3-methyl-3,4,8,9,10,11-hexahydro-1H-pyrido[4′,3′:3,4]pyrazolo[1,5-a]azepine-2(7H)-carboxamide] | 2 |
| C[C@@H]1Cc2nn3c(c2CN1C(=O)Nc1ccc(F)c(C#N)c1)C(F)(F)CCC(F)(CO)C3 (single isomer, unassigned) [Example 111, (3R,8S*)—N-(3-Cyano-4-fluorophenyl)-8,11,11-trifluoro-8-(hydroxymethyl)-3-methyl-3,4,8,9,10,11-hexahydro-1H-pyrido[4′,3′:3,4]pyrazolo[1,5-a]azepine-2(7H)-carboxamide] | 7 |

Same assay, conditions: Hepatitis B virus, HepG2.2.15, 144 h, 6 days, encapsidated HBV DNA in supernatant

| SMILES | EC50 [nM] |
| --- | --- |
| CC1Cc2nn3c(c2CN1C(=O)Nc1ccc(F)c(C#N)c1)C(F)(F)C[C@H](CO)CC3 (some centres unmarked) [Example 131] | 3 |

Source: US20220323455A1, “FUSED HETEROCYCLIC DERIVATIVES AS ANTIVIRAL AGENTS” (priority 2019, published 2022)
